Measurements published in patent US10287267B2, “Isoquinolin-3-yl carboxamides and preparation and use thereof” (Samumed, LLC, priority 2016, dated 2019).
Like-named read-outs stand apart in the source and are kept apart here.

Tests used:
recombinant GSK3β kinase = recombinant GSK3β kinase (Homo sapiens (Human), UniProt P49841); test: GSK3β kinase assay (Ser/Thr 09 peptide Z-lyte FRET); type: biochemical; conditions: 46 μM ATP, 1 h room temperature;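 note: kinase activity read as coumarin to fluorescein emission ratio, 11-point threefold dilutions from 10 µM to 0.0003 µM in duplicate, unphosphorylated and phosphorylated peptide as 0% and 100% controls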
[1] = test system: SW480 colon carcinoma cells; test: Cell viability assay (CellTiter-Glo); type: cell-based, human; conditions: Homo sapiens; for EC50: 96 h, SW480 cells, CellTiter-Glo, four days incubation; for inhibition at 10 µM: SW480, read-out: percent inhibition at 10 μM
[2] = test system: Wnt pathway (Sp5-Luc reporter, TCF/LEF binding sites) in SW480 colon carcinoma cells; test: Screening assay for Wnt activity: Sp5-Luc reporter gene assay; type: cell-based, human; conditions: Homo sapiens; for EC50: Sp5-Luc reporter, SW480 cells, 36 to 48 hours;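 for all read-outs here: firefly luciferase luminescence read in stably transduced SW480 cells carrying the Sp5 promoter reporter with eight TCF/LEF sites, compounds given in 0.1% DMSO final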
Experimental: The screening assay for Wnt activity is described as follows.
Following incubation, 15 μl of BriteLite Plus luminescence reagent (Perkin Elmer) was added to each well of the 384-well assay plates. The plates were placed on an orbital shaker for 2 min and then luminescence was quantified using the Envision (Perkin Elmer) plate reader.

IL-6 = IL-6 inhibition in LPS-stimulated human peripheral blood mononuclear cells (HTRF); type: cell-based; conditions: Homo sapiens, PBMC; for EC50: Table 9, huPBMCs, LPS 50 ng/mL, 22 hours, dose-response starting from 10 μM; for inhibition at 10 µM: read-out: percent value in parentheses beside EC50 >10 μM;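 for all read-outs here: IL-6 detected by HTRF with an XL665- and Cryptate-labelled anti-IL-6 antibody pair, samples run in duplicate, EC50 obtained from a four-parameter Levenberg-Marquardt curve fit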
Experimental: After 22 hour incubation, a mixture of anti-IL6 XL665 and anti-IL-6 Cryptate diluted in reconstitution buffer (Catalog #62IL6PEC, Cisbio Inc., Bedford, Mass.) was added to each well. […] All samples were processed in duplicate. […] EC50 was determined using software generated by Dotmatics Limited (Windhill Bishops Stortford Herts, UK) using the Levenberg-Marquardt 4 parameter fitting procedure with finite different gradients.

[3] = test system: α-smooth muscle actin (αSMA) positive LL29 cells; test: Inhibition of fibrotic process: αSMA in TGF-β1 treated primary human fibroblasts from IPF patients; type: cell-based; conditions: Homo sapiens, Fibroblast; for EC50: 96 h, Table 8, LL29 fibroblasts from IPF patients, TGF-β1 20 ng/mL, 4 days, dose-response 10 μM to 0.94 nM; for inhibition at 10 µM: read-out: percent value in parentheses beside EC50 >10 μM;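 for all read-outs here: controls were TGF-β1 stimulated wells with DMSO vehicle (positive) and cells given DMSO alone (negative), cultured in F12 medium with 1% fetal bovine serum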
[4] = test system: Tau phosphorylation at Ser396 (pSer396); test: Tau phosphorylation assay (pSer396 ELISA / western blot) in SH-SY5Y cells; type: cell-based, human; conditions: Homo sapiens, read-out: pSer396 Tau EC50;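 note: EC50 for reduction of Tau pSer396 in lysed cells, measured by colorimetric ELISA or chemiluminescent western blot, both using the same pSer396 antibody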
[5] = target: recombinant DYRK1A kinase (Homo sapiens (Human), UniProt Q13627); test: DYRK1A kinase assay (Ser/Thr 18 peptide Z-lyte FRET); type: biochemical; conditions: 30 μM ATP, 1 h room temperature;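 note: Read-out is the coumarin to fluorescein emission ratio, referenced to unphosphorylated (0%) and phosphorylated (100%) Ser/Thr 18 peptide controls, values from dose-response curves by non-linear regression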
[6] = SH-SY5Y cells, overnight (16-18 h) exposure

recombinant GSK3β kinase, sequence (P49841 whole entry): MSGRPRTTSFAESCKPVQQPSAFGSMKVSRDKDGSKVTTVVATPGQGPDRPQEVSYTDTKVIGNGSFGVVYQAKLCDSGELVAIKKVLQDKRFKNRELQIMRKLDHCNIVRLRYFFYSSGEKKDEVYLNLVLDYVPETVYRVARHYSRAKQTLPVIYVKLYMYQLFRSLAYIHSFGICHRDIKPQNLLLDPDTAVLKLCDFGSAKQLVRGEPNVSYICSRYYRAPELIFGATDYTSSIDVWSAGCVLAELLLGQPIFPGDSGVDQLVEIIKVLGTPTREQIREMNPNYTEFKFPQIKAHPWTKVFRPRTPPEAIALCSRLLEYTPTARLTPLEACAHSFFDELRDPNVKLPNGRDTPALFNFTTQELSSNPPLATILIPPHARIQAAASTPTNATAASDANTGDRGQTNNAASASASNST

Structure (SMILES): Cn1cc(-c2ccc3cnc(NC(=O)C4CC5(C4)CN(C(=O)C(F)(F)F)C5)cc3c2)cn1 [Compound 325, N-(6-(1-Methyl-1H-pyrazol-4-yl)isoquinolin-3-yl)-2-(2,2,2-trifluoroacetyl)-2-azaspiro[3.3]heptane-6-carboxamide]
- EC50 (recombinant GSK3β kinase): 3 nM
- EC50 [1]: 526 nM
- EC50 [2]: 552 nM
- EC50 (IL-6): 357 nM
- EC50 [3]: 1300 nM
- EC50 [4, 6]: 440 nM
- EC50 [5]: 2.1 nM

Structure (SMILES): Cn1cc(-c2ccc3cnc(NC(=O)C4CC5(C4)CN(CCF)C5)cc3c2)cn1 [Compound 326, 2-(2-Fluoroethyl)-N-(6-(1-methyl-1H-pyrazol-4-yl)isoquinolin-3-yl)-2-azaspiro[3.3]heptane-6-carboxamide]
- EC50 (recombinant GSK3β kinase): 19 nM
- EC50 [1]: 400 nM
- EC50 [2]: 438 nM
- EC50 (IL-6): 380 nM
- EC50 [3]: > 10000 nM
- inhibition at 10 µM [3]: 47.2%
- EC50 [4, 6]: 574 nM
- EC50 [5]: 2.9 nM

Structure (SMILES): Cn1cc(-c2ccc3cnc(NC(=O)[C@H]4CC[C@H](N(C)C)CC4)cc3c2)cn1 [Compound 327, trans-4-(Dimethylamino)-N-(6-(1-methyl-1H-pyrazol-4-yl)isoquinolin-3-yl)cyclohexane-1-carboxamide]
- EC50 (recombinant GSK3β kinase): 66 nM
- EC50 [1]: 1580 nM
- EC50 [2]: 258 nM
- EC50 (IL-6): 947 nM
- EC50 [3]: 58 nM
- EC50 [4, 6]: 411 nM
- EC50 [5]: 1.7 nM

Structure (SMILES): Cn1cc(-c2ccc3cnc(NC(=O)C4CCN(C(=O)c5ccccc5)CC4)cc3c2)cn1 [Compound 328, 1-Benzoyl-N-(6-(1-methyl-1H-pyrazol-4-yl)isoquinolin-3-yl)piperidine-4-carboxamide]
- EC50 (recombinant GSK3β kinase): 16 nM
- EC50 [1]: 929 nM
- EC50 [2]: 804 nM
- EC50 (IL-6): 398 nM
- EC50 [3]: > 10000 nM
- inhibition at 10 µM [3]: 34.5%
- EC50 [4, 6]: 231 nM
- EC50 [5]: 1.9 nM

Structure (SMILES): CC(=O)N1CCC(C(=O)Nc2cc3cc(-c4cnn(C)c4)ccc3cn2)CC1 [Compound 329, 1-Acetyl-N-(6-(1-methyl-1H-pyrazol-4-yl)isoquinolin-3-yl)piperidine-4-carboxamide]
- EC50 (recombinant GSK3β kinase): 29 nM
- EC50 [1]: 4120 nM
- EC50 [2]: 1170 nM
- EC50 (IL-6): 1160 nM
- EC50 [3]: 212 nM
- EC50 [4, 6]: 524 nM
- EC50 [5]: 2.7 nM

Structure (SMILES): CN1CCC(N2CCC(C(=O)Nc3cc4cc(-c5cnn(C)c5)ccc4cn3)CC2)CC1 [Compound 331, 1′-Methyl-N-(6-(1-methyl-1H-pyrazol-4-yl)isoquinolin-3-yl)-[1,4′-bipiperidine]-4-carboxamide]
- EC50 (recombinant GSK3β kinase): 55 nM
- EC50 [1]: 3120 nM
- EC50 [2]: 2990 nM
- EC50 (IL-6): 882 nM
- EC50 [3]: 96 nM
- EC50 [4, 6]: 311 nM
- EC50 [5]: 1.8 nM

Structure (SMILES): Cn1cc(-c2ccc3cnc(NC(=O)C4CCN(C5CCOCC5)CC4)cc3c2)cn1 [Compound 332, N-(6-(1-Methyl-1H-pyrazol-4-yl)isoquinolin-3-yl)-1-(tetrahydro-2H-pyran-4-yl)piperidine-4-carboxamide]
- EC50 (recombinant GSK3β kinase): 39 nM
- EC50 [1]: 1000 nM
- EC50 [2]: 662 nM
- EC50 (IL-6): 1070 nM
- EC50 [3]: 291 nM
- EC50 [4, 6]: 249 nM
- EC50 [5]: 3.5 nM

Structure (SMILES): Cn1cc(-c2ccc3cnc(NC(=O)[C@H]4CC[C@H](CO)CC4)cc3c2)cn1 [Compound 333, trans-4-(Hydroxymethyl)-N-(6-(1-methyl-1H-pyrazol-4-yl)isoquinolin-3-yl)cyclohexane-1-carboxamide]
- EC50 (recombinant GSK3β kinase): 60 nM
- EC50 [1]: 641 nM
- EC50 [2]: 384 nM
- EC50 (IL-6): 790 nM
- EC50 [3]: 61 nM
- EC50 [4, 6]: 1100 nM
- EC50 [5]: 1.2 nM

Structure (SMILES): COC(=O)CN1CCC(C(=O)Nc2cc3cc(-c4cnn(C)c4)ccc3cn2)CC1 [Compound 334, Methyl 2-(4-((6-(1-methyl-1H-pyrazol-4-yl)isoquinolin-3-yl)carbamoyl)piperidin-1-yl)acetate]
- EC50 (recombinant GSK3β kinase): 47 nM
- EC50 [1]: 7370 nM
- EC50 [2]: 787 nM
- EC50 (IL-6): 263 nM
- EC50 [3]: 63 nM
- EC50 [4, 6]: 820 nM
- EC50 [5]: 1.6 nM

Structure (SMILES): Cn1cc(-c2ccc3cnc(NC(=O)C4CCN(Cc5ccccc5)CC4)cc3c2)cn1 [Compound 335, 1-Benzyl-N-(6-(1-methyl-1H-pyrazol-4-yl)isoquinolin-3-yl)piperidine-4-carboxamide]
- EC50 (recombinant GSK3β kinase): 71 nM
- EC50 [1]: 1120 nM
- EC50 [2]: 993 nM
- EC50 (IL-6): 401 nM
- EC50 [3]: 111 nM
- EC50 [4, 6]: 289 nM
- EC50 [5]: 3.8 nM

Structure (SMILES): Cn1cc(-c2ccc3cnc(NC(=O)C4CCN(C(=O)CN5CCCC5)CC4)cc3c2)cn1 [Compound 336, N-(6-(1-Methyl-1H-pyrazol-4-yl)isoquinolin-3-yl)-1-(2-(pyrrolidin-1-yl)acetyl)piperidine-4-carboxamide]
- EC50 (recombinant GSK3β kinase): 83 nM
- EC50 [1]: 510 nM
- EC50 [2]: 395 nM
- EC50 (IL-6): 569 nM
- EC50 [3]: > 10000 nM
- inhibition at 10 µM [3]: 38.4%
- EC50 [4, 6]: 820 nM
- EC50 [5]: 2.9 nM

Structure (SMILES): Cn1cc(-c2ccc3cnc(NC(=O)[C@@H]4CCCCN4)cc3c2)cn1 [Compound 340, (S)—N-(6-(1-Methyl-1H-pyrazol-4-yl)isoquinolin-3-yl)piperidine-2-carboxamide]
- EC50 (recombinant GSK3β kinase): 257 nM
- EC50 [1]: 2230 nM
- EC50 [2]: 932 nM
- EC50 (IL-6): 562 nM
- EC50 [3]: 413 nM
- EC50 [4, 6]: 2300 nM
- EC50 [5]: 1.9 nM

Structure (SMILES): C[C@H]1COCCN1CC(=O)Nc1cc2cc(-c3cnn(C)c3)ccc2cn1 [Compound 341, (S)—N-(6-(1-Methyl-1H-pyrazol-4-yl)isoquinolin-3-yl)-2-(3-methylmorpholino)acetamide]
- EC50 (recombinant GSK3β kinase): 89 nM
- EC50 [1]: > 10000 nM
- inhibition at 10 µM [1]: 33.9%
- EC50 [2]: 4100 nM
- inhibition at 10 µM (IL-6): 46.1%
- EC50 (IL-6): > 10000 nM
- EC50 [3]: 2370 nM
- EC50 [4, 6]: 1600 nM
- EC50 [5]: 5.6 nM

Structure (SMILES): C[C@@H]1COCCN1CC(=O)Nc1cc2cc(-c3cnn(C)c3)ccc2cn1 [Compound 342, (R)—N-(6-(1-Methyl-1H-pyrazol-4-yl)isoquinolin-3-yl)-2-(3-methylmorpholino)acetamide]
- EC50 (recombinant GSK3β kinase): 137 nM
- EC50 [1]: > 10000 nM
- inhibition at 10 µM [1]: 40%
- EC50 [2]: 7220 nM
- EC50 (IL-6): 4170 nM
- EC50 [3]: 948 nM
- EC50 [4, 6]: 3600 nM
- EC50 [5]: 6.5 nM

Structure (SMILES): C[C@H]1CN(CC(=O)Nc2cc3cc(-c4cnn(C)c4)ccc3cn2)CCO1 [Compound 343, (S)—N-(6-(1-Methyl-1H-pyrazol-4-yl)isoquinolin-3-yl)-2-(2-methylmorpholino)acetamide]
- EC50 (recombinant GSK3β kinase): 71 nM
- EC50 [1]: 7890 nM
- EC50 [2]: 3590 nM
- inhibition at 10 µM (IL-6): 47.4%
- EC50 (IL-6): > 10000 nM
- EC50 [3]: 446 nM
- EC50 [4, 6]: 2400 nM
- EC50 [5]: 9.9 nM

Structure (SMILES): C[C@@H]1CN(CC(=O)Nc2cc3cc(-c4cnn(C)c4)ccc3cn2)C[C@H](C)O1 [Compound 344, 2-((2R,6S)-2,6-Dimethylmorpholino)-N-(6-(1-methyl-1H-pyrazol-4-yl)isoquinolin-3-yl)acetamide]
- EC50 (recombinant GSK3β kinase): 175 nM
- EC50 [1]: 7680 nM
- EC50 [2]: 5470 nM
- EC50 (IL-6): 9130 nM
- EC50 [3]: > 10000 nM
- inhibition at 10 µM [3]: 24.3%
- EC50 [4, 6]: 3500 nM
- EC50 [5]: 10.5 nM

Structure (SMILES): Cn1cc(-c2ccc3cnc(NC(=O)CN4C[C@@H]5C[C@H]4CO5)cc3c2)cn1 [Compound 345, 2-((1S,4S)-2-Oxa-5-azabicyclo[2.2.1]heptan-5-yl)-N-(6-(1-methyl-1H-pyrazol-4-yl)isoquinolin-3-yl)acetamide]
- EC50 (recombinant GSK3β kinase): 26 nM
- EC50 [1]: 3080 nM
- EC50 [2]: 2120 nM
- EC50 (IL-6): 4170 nM
- EC50 [3]: > 10000 nM
- inhibition at 10 µM [3]: 38%
- EC50 [4, 6]: 774 nM
- EC50 [5]: 4 nM

Structure (SMILES): Cn1cc(-c2ccc3cnc(NC(=O)CN4C[C@H]5C[C@@H]4CO5)cc3c2)cn1 [Compound 346, 2-((1R,4R)-2-Oxa-5-azabicyclo[2.2.1]heptan-5-yl)-N-(6-(1-methyl-1H-pyrazol-4-yl)isoquinolin-3-yl)acetamide]
- EC50 (recombinant GSK3β kinase): 84 nM
- EC50 [1]: 9660 nM
- EC50 [2]: 4360 nM
- EC50 (IL-6): 9440 nM
- EC50 [3]: 965 nM
- EC50 [4, 6]: 1800 nM
- EC50 [5]: 9.9 nM

Structure (SMILES): Cn1cc(-c2ccc3cnc(NC(=O)CN4C5CCC4COC5)cc3c2)cn1 [Compound 347, 2-(3-Oxa-8-azabicyclo[3.2.1]octan-8-yl)-N-(6-(1-methyl-1H-pyrazol-4-yl)isoquinolin-3-yl)acetamide]
- EC50 (recombinant GSK3β kinase): 165 nM
- EC50 [1]: > 10000 nM
- inhibition at 10 µM [1]: 48.5%
- EC50 [2]: 9440 nM
- inhibition at 10 µM (IL-6): 4.5%
- EC50 (IL-6): > 10000 nM
- EC50 [3]: 5220 nM
- EC50 ([4]; SH-SY5Y): 4400 nM
- EC50 [5]: 10.4 nM

Structure (SMILES): C[C@@H](C(=O)Nc1cc2cc(-c3cnn(C)c3)ccc2cn1)N1CCOCC1 [Compound 348, (S)—N-(6-(1-Methyl-1H-pyrazol-4-yl)isoquinolin-3-yl)-2-morpholinopropanamide]
- EC50 (recombinant GSK3β kinase): 221 nM
- EC50 [1]: > 10000 nM
- inhibition at 10 µM [1]: 22.4%
- inhibition at 10 µM ([2]; SW480, read-out: percent inhibition at 10 μM): 36.9%
- EC50 [2]: > 10000 nM
- inhibition at 10 µM (IL-6): 19%
- EC50 (IL-6): > 10000 nM
- EC50 [3]: 1460 nM
- EC50 [4, 6]: 2000 nM
- EC50 [5]: 77.5 nM
